Data: patent publication US20210255184A1, “Biosensor Device and Methods” (The New Zealand Institute for Plant and Food Research …, priority 2018, published 2021)

Target: T1, Or22a (Drosophila melanogaster, UniProt P81909)
T1 construct: his-tag; made in house; host or cells: baculovirus-infected Sf9 cells
T1 sequence (P81909 1-397): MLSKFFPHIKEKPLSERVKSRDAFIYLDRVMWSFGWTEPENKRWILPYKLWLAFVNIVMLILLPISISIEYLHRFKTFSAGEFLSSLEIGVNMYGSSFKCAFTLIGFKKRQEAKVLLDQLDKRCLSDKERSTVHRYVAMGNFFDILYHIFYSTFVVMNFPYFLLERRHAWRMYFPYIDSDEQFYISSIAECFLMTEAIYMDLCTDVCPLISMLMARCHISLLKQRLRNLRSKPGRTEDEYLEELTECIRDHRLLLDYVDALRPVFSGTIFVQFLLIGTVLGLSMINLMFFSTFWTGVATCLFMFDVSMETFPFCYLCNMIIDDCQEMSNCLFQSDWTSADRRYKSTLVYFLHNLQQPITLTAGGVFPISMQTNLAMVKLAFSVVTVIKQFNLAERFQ
Test: EIS sensor, Or22a liposomes on gold electrode
Assay type: biochemical
Experimental: Prior to their use, liposomes were defrosted on ice and then destabilized by incubating with 0.2% CHAPS for 15 min at room temperature. Then 200 μg of purified odorant receptor^28 was added to 1 mg of liposomes and rotated at 10 rpm for 1 h at room temperature. Excess detergent was removed by four additions of 25 mg of Bio-Beads SM-2 (Bio-Rad, USA) and incubation at 4° C. for 30 min, 2 h, overnight and a further 2 h respectively. The Bio-Beads were removed after each incubation period. The OrX or OrX/Orco integrated liposomes were pelleted by centrifugation at 100,000 g for 1 h, and were resuspended in 500 μL of rehydration buffer. Integration of OrXs and Orco into liposomes was assessed by density gradient ultracentrifugation (DGU) using Accudenz (Accurate Chemical & Scientific Corporation, USA). The integrated liposomes were brought to 40% Accudenz by the addition of an equal volume of 80% Accudenz solution, placed at the bottom of an ultra-centrifugation tube, and overlaid with 30% Accudenz solution, and DGU buffer (25 mM HEPES pH 7.5, 100 mM NaCl, 10% glycerol). The sample was then centrifuged at 100,000 g for 4 h at 4° C. Liposomes will float to the top of the gradient after Accudenz DGU due to their low density.
2 mM MHA was prepared by dissolving 1.36 μl of MHA in 5 ml ethanol (AR grade). The cleaned electrodes were immersed into MHA solution and incubated overnight. The next day, all the electrodes were washed with ethanol and deionised water thoroughly in order to remove the unreacted acid. A 2:1 mol:mol ratio of EDC:NHS (100 mM EDC, 50 mM NHS) was prepared in 2 ml PBS (pH=6.5) solution. Then, the electrodes were covered in 100 μl of this solution at 28° C. for an hour to activate the carboxylic (COOH) groups of the MHA.
PBS solution was prepared by immersing one tablet of PBS in 200 ml of milli-Q water (according to manufacturers instructions) and filtered using 0.2-μm syringe filter. The pH of the prepared buffer solution was measured with a pH meter. OrX liposomes or OrX/Orco liposomes were diluted 100 fold in PBS buffer solution (pH=7.4) and the COOH-activated electrodes were incubated in that buffer solution at room temperature for one hour. Then, the electrodes were washed extensively with PBS buffer solution to wash out any unbound liposomes.
PBS (pH=7.4) was used as an electrolyte to conduct electrochemical measurements. PBS buffer was degassed for about 30 minutes prior to electrochemical measurements. Odorant solutions of concentration ranging from 1 aM to 1 μM were prepared by sequential dilution in PBS solution containing 1% DMSO. OR immobilized electrodes were incubated in relevant odorant solution for ˜30 minutes each and washed gently with PBS before EIS measurements.
EIS measurements were done in a 3 electrode cell containing Ag/AgCl (3 M NaCl, 0.209 V vs. SHE) reference electrode, coiled platinum wire as a counter electrode and the gold disk as a working electrode at a fixed voltage of −0.7 using PalmSens potentiostat. Degassed PBS was used as an electrolyte.
EIS measurements were performed on gold electrodes functionalised with OrX liposomes (either Or10a or Or22a), OrX/Orco liposomes, or empty liposomes prior to and after target ligand or control ligand incubation with increasing concentrations (1 aM to 100 μM). Dose response curves were obtained by defining sensor response as −(ΔRp/R^op) versus log[C(Ligand)]. FIG. 4a presents the EIS response in terms of Nyquist plot for the Or10a liposome functionalized sensors when exposed to a solution containing one of the known target ligands of Or10a, methyl salicylate, at various concentrations. […] The dose response curve (FIG. 4b) was obtained by plotting the change in polarization resistance −(ΔRp/R^op) versus log[conc(Ligand)], as the sensor response. Here, Rp is the polarization resistance after Or10a liposome-target interaction and R^op is the polarization resistance before Or10a liposome-target interaction.

| SMILES | limit of detection (LOD) (EIS dose response, ligand 1 aM to 100 μM) [fM] | EC50 (Table 1, approximate) [pM] | Sensitivity limit (Table 1, * estimated visually from dose response graph) | Detection Range (Table 3) | EC50 (Table 3, fitted dose response) [pM] | sensor response to control ligand (EIS dose response) |
| --- | --- | --- | --- | --- | --- | --- |
| CCCCCC(=O)OC [methyl hexanoate] | 1 | ~1 | ~10^−15 M* | 10^−15 to 10^−5 M | 1.1 |  |
| COC(=O)c1ccccc1O [methyl salicylate] |  |  |  |  |  | negligible response |
